Data reported in publication PMC11174103 (Molecules, 2024).
Values joined by “and” are separate entries in the source; they are usually repeats but may differ in a detail not shown here. Equal values may be shown once. Read-outs that look alike come from different tables or passages of the source.

Experiments:
hMAO-B = biological target: T1, hMAO-B (Homo sapiens, UniProt P27338); assay: In vitro MAO-B enzyme inhibitory activity (recombinant human enzyme, benzylamine substrate); assay type: biochemical; details: for IC50: recombinant human MAO-B, mean ± SD of 3 independent experiments in triplicate; for SI: SI = IC50 (hMAO-A)/IC50 (hMAO-B) ratio
T1 construct: purchased Sigma-Aldrich
T1 sequence (P27338 1-520): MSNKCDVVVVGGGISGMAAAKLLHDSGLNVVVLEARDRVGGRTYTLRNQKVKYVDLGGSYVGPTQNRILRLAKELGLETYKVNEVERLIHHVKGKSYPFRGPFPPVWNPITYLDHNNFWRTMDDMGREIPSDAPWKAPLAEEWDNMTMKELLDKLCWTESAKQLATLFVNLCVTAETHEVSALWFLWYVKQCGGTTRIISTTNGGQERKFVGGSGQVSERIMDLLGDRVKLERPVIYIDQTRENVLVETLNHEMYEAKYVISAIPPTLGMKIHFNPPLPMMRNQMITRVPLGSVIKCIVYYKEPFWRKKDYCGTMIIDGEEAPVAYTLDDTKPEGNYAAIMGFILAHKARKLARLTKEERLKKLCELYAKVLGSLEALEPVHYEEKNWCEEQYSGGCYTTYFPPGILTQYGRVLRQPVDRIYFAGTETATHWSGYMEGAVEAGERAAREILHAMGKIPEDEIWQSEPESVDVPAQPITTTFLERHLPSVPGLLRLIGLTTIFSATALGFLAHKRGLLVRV
Experimental: (§1) The Novaroli et al. method was used with minor modifications to study the biological activities of MAO-A and MAO-B in vitro. A preincubation step was carried out at 37 °C for 10 min, in which 140 μL of 0.1 M potassium phosphate-buffered solution at pH 7.4, 8 μL of 0.75 mM kynuramine, and 2 μL of a dimethyl sulfoxide (DMSO) solution (i.e., final DMSO and inhibitor concentrations of 1% (v/v) and 0–1 μM, respectively). Diluted human recombinant enzyme (50 μL) was added to achieve the final protein concentration, and the mixture was incubated at 37 °C. After 20 min, the reaction was stopped with the addition of 75 μL of 2 M NaOH. […] Each measurement was repeated three times. DMSO was used as control. IC50 values were then calculated. […] The determination of IC50 values for inhibition of MAO enzymes involved the use of recombinant human MAO-A and MAO-B enzymes (purchased from Sigma-Aldrich). The initial rates of oxidation were measured in a 1 mL cuvette containing 50 mM of sodium phosphate (pH 7.4) at 25 °C, as described previously, except for the substrate concentrations and assay times. […] Meanwhile, the assessment of MAO-B activity employed 0.6 mM of benzylamine as the substrate, with absorbance changes measured at 250 nm for 10 min. Substrate addition initiated the reaction, and the reaction rates were quantified as alterations in absorbance per minute.

hMAO-A = biological target: T2, hMAO-A (Homo sapiens, UniProt P21397); assay: In vitro MAO-A enzyme inhibitory activity (recombinant human enzyme, kynuramine substrate); assay type: biochemical
T2 construct: purchased Sigma-Aldrich
T2 sequence (P21397 1-527): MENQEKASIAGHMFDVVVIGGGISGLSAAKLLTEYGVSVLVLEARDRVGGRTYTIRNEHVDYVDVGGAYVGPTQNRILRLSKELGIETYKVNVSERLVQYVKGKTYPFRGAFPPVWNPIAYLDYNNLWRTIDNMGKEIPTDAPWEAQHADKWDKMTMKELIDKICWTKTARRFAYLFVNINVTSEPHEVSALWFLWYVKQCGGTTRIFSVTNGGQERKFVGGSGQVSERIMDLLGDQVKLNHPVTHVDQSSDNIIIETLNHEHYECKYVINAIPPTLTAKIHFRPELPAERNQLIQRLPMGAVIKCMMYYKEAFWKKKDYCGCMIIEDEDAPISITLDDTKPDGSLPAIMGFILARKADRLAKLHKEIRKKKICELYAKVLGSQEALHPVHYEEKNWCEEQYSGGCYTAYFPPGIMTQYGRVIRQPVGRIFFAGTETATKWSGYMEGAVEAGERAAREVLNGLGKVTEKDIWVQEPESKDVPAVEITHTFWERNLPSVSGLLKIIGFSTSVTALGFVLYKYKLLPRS
Experimental: as §1

[1] = recombinant human MAO-A, mean ± SD of 3 independent experiments in triplicate, read-out: IC50 hMAO-A

Row | Compound | IC50 (hMAO-B) | SI (hMAO-B) | IC50 (hMAO-A) [nM] | IC50 (hMAO-A; [1]) [nM]
1 | C(#CC1(N2CCCCC2)CCCCC1)c1ccccc1 [4a, 1-(1-(phenylethynyl)cyclohexyl)piperidine] | 274.2 ± 2.68 nM | – | – | –
2 | C(#CC1(N2CCCC2c2cccnc2)CCCCC1)c1ccccc1 (stereo not drawn) [4aa, 3-(1-(1-(Phenylethynyl)cyclohexyl)pyrrolidin-2-yl)pyridine] | 168 ± 2.12 nM | 4.70 | 791.3 ± 6.72 | –
3 | CC(C)(O)C#CC1(N2CCN(c3ccccc3)CC2)CCCCC1 [4ab, 2-Methyl-4-(1-(4-phenylpiperazin-1-yl)cyclohexyl)but-3-yn-2-ol] | 167 ± 2.01 nM | 5.06 | – | 845.8 ± 6.83
4 | C(#CC1(NCc2ccccc2)CCCCC1)c1ccccc1 [4ac, N-Benzyl-1-(phenylethynyl)cyclohexanamine] | 278.4 ± 2.71 nM | – | – | –
5 | CC(C)(O)C#CC1(NCc2ccc(F)cc2)CCCCC1 [4ad, 4-(1-((4-Fluorobenzyl)amino)cyclohexyl)-2-methylbut-3-yn-2-ol] | 161 ± 1.97 nM | 4.74 | – | 765.6 ± 6.42
6 | C(#CC1(NCc2ccccc2)CC2CCC1C2)c1ccccc1 (stereo not drawn) [4ae, N-Benzyl-2-(phenylethynyl)bicyclo[2.2.1]heptan-2-amine] | 321.6 ± 2.94 nM | – | – | –
7 | C(#CC1(N2CCCC2)CCCC1)c1ccccc1 [4b, 1-(1-(phenylethynyl)cyclopentyl)pyrrolidine] | 182 ± 2.21 nM | – | – | –
8 | C(#CC1(N2CCCC2)CCCCCC1)c1ccccc1 [4c, 1-(1-(phenylethynyl)cycloheptyl)pyrrolidine] | 183 ± 2.12 nM | – | – | –
9 | C(#CC1(N2CCOCC2)CCCCC1)c1ccccc1 [4d, 4-(1-(Phenylethynyl)cyclohexyl)morpholine] | 174 ± 2.08 nM | – | – | –
10 | CCCN(CCC)C1(C#Cc2ccccc2)CCCCC1 [4e, 1-(phenylethynyl)-N, N-dipropylcyclohexan-1-amine] | 286.1 ± 2.74 nM | – | – | –
11 | Clc1ccc(C#CC2(N3CCCCC3)CCCCC2)cc1 [4f, 1-(1-((4-chlorophenyl)ethynyl)cyclohexyl)piperidine] | 175 ± 2.11 nM | – | – | –
12 | Cc1ccc(C#CC2(N3CCCC3)CCCCC2)cc1 [4g, 1-(1-(p–tolylethynyl)cyclohexyl)pyrrolidine] | 189 ± 2.24 nM | – | – | –
13 | Clc1ccc(C#CC2(N3CCCC3)CCCCC2)cc1 [4h, 1-(1-((4-chlorophenyl)ethynyl)cyclohexyl)pyrrolidine] | 172 ± 2.1 nM | – | – | –
14 | COc1ccc(C#CC2(N3CCCCC3)CCCCC2)cc1 [4i, 1-(1-((4-methoxyphenyl)ethynyl)cyclohexyl)piperidine] | 172 ± 2.1 nM | – | – | –
15 | C(#CC1(N2CCCC2c2cccnc2)CCCC1)c1ccccc1 (stereo not drawn) [4j, 3-(1-(1-(Phenylethynyl)cyclopentyl)pyrrolidin-2-yl)pyridine] | 165 ± 2.03 nM | 5.23 | – | 861.5 ± 6.97
16 | CC(C)(O)C#CC1(N2CCCC2c2cccnc2)CCCCC1 (stereo not drawn) [4k, 2-methyl-4-(1-(2-(pyridin-3-yl)pyrrolidin-1-yl)cyclohexyl)but-3-yn-2-ol] | 152 ± 1.95 nM | 5.24 | – | 797.1 ± 6.73
17 | C(#CC1(NC2CCCCC2)CCCCC1)c1ccccc1 [4l, N-cyclohexyl-1-(phenylethynyl)cyclohexan-1-amine] | 294 ± 3.06 nM | – | – | –
18 | COc1ccc(CNC2(C#Cc3ccccc3)CCCCC2)cc1 [4m, N-(4-methoxybenzyl)-1-(phenylethynyl)cyclohexanamine] | 165 ± 2.01 nM | 4.86 | – | 802.9 ± 7.03
19 | C(#CC1(N2CCCCC2)CCCC1)c1ccccc1 [4n, 1-(1-(phenylethynyl)cyclopentyl)piperidine] | 272.3 ± 2.54 nM | – | – | –
20 | CCC(C)(C#Cc1ccccc1)N1CCCC1 (stereo not drawn) [4o, 1-(3-Methyl-1-phenylpent-1-yn-3-yl)pyrrolidine] | 312 ± 3.17 nM | – | – | –
21 | CCCC(C)(C#Cc1ccccc1)N1CCCC1 (stereo not drawn) [4p, 1-(3-Methyl-1-phenylhex-1-yn-3-yl)pyrrolidine] | 203 ± 2.24 nM | – | – | –
22 | CCC(C#Cc1ccccc1)(CC)N1CCCC1 [4q, 1-(3-Ethyl-1-phenylpent-1-yn-3-yl)pyrrolidine] | 317 ± 3.24 nM | – | – | –
23 | CCCCCCC(C#Cc1ccccc1)(CCC)N1CCCC1 (stereo not drawn) [4r, 1-(4-(Phenylethynyl)decan-4-yl)pyrrolidine] | 323.4 ± 3.21 nM | – | – | –
24 | CC1CCCCC1(C#Cc1ccccc1)N1CCCC1 (stereo not drawn) [4s, 1-(2-Methyl-1-(phenylethynyl)cyclohexyl)pyrrolidine] | 281.3 ± 2.75 nM | – | – | –
25 | CC1CCCC(C#Cc2ccccc2)(N2CCCC2)C1 (stereo not drawn) [4t, 1-(3-Methyl-1-(phenylethynyl)cyclohexyl)pyrrolidine] | 192 ± 2.41 nM | – | – | –
26 | C(#CC1(N2CCCCC2)CC2CCC1C2)c1ccccc1 (stereo not drawn) [4u, 1-(2-(Phenylethynyl)bicyclo[2.2.1]heptan-2-yl)piperidine] | 346 nM and 277 nM | – | – | –
27 | Cc1cccc(C#CC2(N3CCCCC3)CCCCC2)c1 [4w, 1-(1-(m-Tolylethynyl)cyclohexyl)piperidine] | 281.9 ± 2.72 nM | – | – | –
28 | COc1ccc(C#CC2(N3CCCCC3)CCCCC2)c(C)c1 [4x, 1-(1-((4-Methoxy-2-methylphenyl)ethynyl)cyclohexyl)piperidine] | 267.4 ± 2.52 nM | – | – | –
29 | Brc1ccccc1C#CC1(N2CCCCC2)CCCCC1 [4y, 1-(1-((2-Bromophenyl)ethynyl)cyclohexyl)piperidine] | 277.4 ± 2.71 nM | – | – | –
30 | CCOC(=O)C1CCN(C2(C#Cc3ccccc3)CCCCC2)CC1 [4z, Ethyl 1-(1-(phenylethynyl)cyclohexyl)piperidine-4-carboxylate] | 213 ± 2.24 nM | – | – | –
